Experimental data from US10918687B2, “Kava derived therapeutic compounds and methods of use thereof” (KUALITY HERBCEUTICS LLC, priority 2013, dated 2021).

Legend:
[1] = system: NNK-induced DNA damage in liver tissues; test: NNK-induced DNA damage in A/J mouse liver tissues; type: in vivo, A/J mice; conditions: diet Day 1-Day 7, 24 h after NNK; data not shown
Method: DNA was isolated and purified from ˜100 mg lung and liver tissues of each mouse, following Genomic-tip 100/G protocol from Qiagen Corp (Valencia, Calif.).
(§1) After one-week acclimation, A/J mice were weighed and randomized into ten groups (3 mice per group except for Group 1 that had one mouse as the negative control) and switched to the AIN-93 G diet on a date defined as Day 1. Mice in Groups 1 and 2 were given the AIN-93 G diet during Day 1-Day 7. Mice in Groups 3-10 were given the AIN-93 G diets supplemented with kava, (+)-DHK, (+)-DHM, and synthetic (±)-DHM respectively at the specified dose during Day 1-Day 7. Mice in Groups 2-10 were given a single dose of NNK at 100 mg/kg bodyweight in saline (0.1 ml) via i.p. injection at the beginning of Day 7 while the mouse in Group 1 was given saline (0.1 ml). Mice were euthanized by CO2 overdosing 24 h after NNK treatment, and lung and liver tissues were collected and stored at −80° C. until DNA isolation. A set of NNK-induced DNA adducts (O^6-mG, 7-mG, 7-pobG, O^6-pobdG, O^2-pobdT, 7-phbG, O^6-phbdG and O^2-phbdT) were quantified by following reported procedures (Leitzman, P et al. (2014) Cancer. Prev. Res., 7: 86-96; Peterson, L A et al. (2013) Chem. Res. Toxicol. 26: 1464-1473; Upadhyaya, P et al. (2008) Chem. Res. Toxicol. 21: 1468-1476). For 7-mG isolation, DNA (30 μg) was dissolved in 10 mM sodium phosphate buffer, pH 7 (500 μL) and spiked with [^13C1^2H3]7-mG (10 pmol). Samples were heated to 80° C. for 30 minutes. An aliquot (100 μL) was removed for 7-mG analysis.

[2] = system: NNK-induced lung tumorigenesis; test: NNK-induced lung adenoma formation in A/J mice; type: in vivo; conditions: Example 4, Day 119
Method: Female A/J mice, 5-6 weeks of age from the Jackson Laboratory (Bar Harbor, Me.), were handled according to animal welfare protocols approved by IACUC at the University of Minnesota. […] After one-week acclimation, mice were weighed, randomized into different groups and switched to AIN-93G-powdered diet, defined as Day 1. The number of mice in each group was specified in the Result Section. On Day 7 and Day 14, mice in the negative control groups received 0.1 mL physiological saline solution while mice in the other groups received NNK (100 and 67 mg/kg respectively in 0.1 mL of physiological saline solution) via i.p. injection. At the end of Day 21, mice were switched to AIN-93M-powdered diet until the end of the study. Diet consumption was measured twice weekly and bodyweight was monitored weekly. All mice were euthanized with an overdose of carbon dioxide. The lungs were collected and tumors on the surface of the lung were counted.
Data on lung adenoma multiplicity were reported as mean±SD (n=5-40). […] For Experiment 2, unpaired t-test was used for comparison between NNK control and kava treatment groups. Two-sided p-value≤0.05 was considered statistically significant. Data on DNA adducts were reported as mean±SD (n=3). For the time-course study, unpaired […] was used for comparisons between NNK control and kava treatment groups. Two-sided p-value≤0.05 was considered statistically significant: *p<0.05, **p<0.01, and ***p<0.001. For the 24-h time point study, one-way ANOVA was used to compare means.
After one-week acclimation, mice were weighed, randomized into eight groups and switched to the AIN-93 G diet on a date defined as Day 1. The number of mice in each group is specified in the Results Section (FIG. 36). Mice were fed diets supplemented with different compounds at the dose specified in the Results Section during Day 1-Day 14. On Day 7 and Day 14, mice in the negative control group received 0.1 mL of saline solution while mice in the other groups received NNK (100 and 67 mg/kg, respectively, in 0.1 mL of saline solution) via i.p. injection. At the end of Day 21, mice were switched to the AIN-93 M diet until the end of the study. The diet was replenished twice weekly. The diet consumption was measured twice weekly and the bodyweight was monitored weekly. This study was terminated at the end of Day 119. All mice were euthanized with CO2 overdosing.

[3] = system: NNK-induced DNA adducts in lung tissues; test: NNK-induced DNA adducts in A/J mouse lung tissues (LC-ESI-MS/MS); type: in vivo, A/J mice; conditions: 24 h after NNK
Text: DNA was isolated from the whole lung tissue of each individual mouse following Puregene DNA isolation protocol (Qiagen Corp, Valencia, Calif.) (Urban et al., Chem Res Toxicol 2012; 25:2167-78). 7-pobG, O^2-pobdT, O^6-pobdG, and O^6-mG were quantified by LC-ESI-MS/MS, following established protocols (Urban et al., Chem Res Toxicol 2012; 25:2167-78; Peterson et al., Cancer Res 1991; 51:5557-64).
After one-week acclimation, A/J mice were weighed and randomized into seven groups (3 mice per group) and switched to the AIN-93 G diet on a date defined as Day 1. Mice in Groups 1 and 2 were given the AIN-93 G diet during Day 1-Day 7. Mice in Groups 3-7 were given the AIN-93 G diet supplemented with desmethoxyyangonin, (+)-DHK, (+)-kavain, (+)-DHM, or (+)-methysticin respectively, at a dose of 1 mg/g of diet during Day 1-Day 7. Mice in Groups 2-7 were given a single dose of NNK at 100 mg/kg bodyweight in saline (0.1 ml) via intraperitoneal (i.p.) injection at the beginning of Day 7 while mice in Group 1 were given saline (0.1 ml). Mice were euthanized by CO2 overdosing 24 h after NNK treatment, and lung tissues were collected and stored at −80° C. until DNA isolation. A number of NNK-induced DNA modifications (O^6-mG, 7-pobG, O^6-pobdG and O^2-pobdT) were quantified by following a reported procedure (Leitzman, P et al. (2014) Cancer. Prev. Res., 7: 86-96).
as §1

[4] = system: APAP-induced hepatotoxicity; test: Short-term combination study: potentiation of APAP-induced hepatotoxicity in C57BL/6 mice
Text: Six week-old female C57BL/6J mice (Jackson Laboratories, ME) were housed at specific pathogen-free animal facilities of Research Animal Resources, University of Minnesota with free access to standard rodent food and water. All mice were acclimatized for one week before being used for experiments. Mice were gavaged with dose formulations at the indicated doses and times, euthanized by CO2 overdosing with necropsy performed by experienced researchers.
The short-term combination studies were designed to evaluate the potential synergism of kava and its chemicals to APAP induced hepatotoxicity. C57BL/6 mice were randomized (8-15 mice per group) and were administered with PEG-400 (200 μL), kava (500 mg/kg bodyweight), DHM or FKA and FKB in PEG-400 (200 μL) at the indicated doses daily via oral gavage for two days. On the third day, mice in the respective groups were co-administered with APAP (800 mg/kg bodyweight) in PEG-400 (200 μL). Bodyweight was recorded daily. Necropsies were performed 24 hours after the last gavage by experienced researchers. Serum from each mouse was analyzed for ALT and AST. Livers were collected and preserved in 10% neutral buffered formalin. Appropriately fixed tissues were processed into paraffin blocks using standard histological techniques, and 5 μm sections were cut and stained with hematoxylin and eosin (H&E).
The clinical chemistry data were reported as mean±SD (n=4-15). […] One-way analysis of variance (ANOVA) was used to compare the means among different groups in the short-term combination studies. Dunnett's test was used for comparisons of APAP and other treatment groups when the one-way ANOVA analysis was statistically significant. p-value≤0.05 was considered statistically significant. All analyses were conducted in GraphPad Prism 4 (GraphPad Software, Inc. La Jolla, Calif.).

COC1=CC(=O)O[C@@H](CCc2ccccc2)C1 [(+)-DHK, (+)-dihydrokavain]
effect on NNK-induced DNA damage in the liver tissues [1]: none of the treatments had significant effects
lung adenoma formation (incidence and multiplicity) ([2]; 0.05 mg/g of diet Day 1-Day 14): no reduction at all
lung adenoma formation (incidence and multiplicity) ([2]; 0.5 mg/g of diet Day 1-Day 14): no reduction at all
effect on O^6-mG and POB adducts ([3]; 1 mg/g of diet): did not reduce any of these adducts

COC1=CC(=O)O[C@@H](CCc2ccc3c(c2)OCO3)C1 (racemic) [(±)-DHM, (±)-dihydromethysticin]
effect on NNK-induced DNA damage in the liver tissues [1]: none of the treatments had significant effects
lung adenoma formation (incidence and multiplicity) ([2]; 0.5 mg/g of diet Day 1-Day 14): adenoma free

CC(=O)Nc1ccc(O)cc1 [APAP, acetaminophen, reference compound]
serum ALT and AST activities ([4]; APAP alone 800 mg/kg bodyweight via gavage): significantly increased
liver lesions ([4]; APAP alone 800 mg/kg, lesions graded 0 to 4): evenly distributed among different severity categories

COC1=CC(=O)O[C@@H](/C=C/c2ccc3c(c2)OCO3)C1 [(+)-methysticin]
effect on NNK-induced O^6-mG ([3]; isolated kavalactones 1 mg/g of diet Day 1-Day 7): significantly reduced
